{"source": "patent US7270833B2", "about": "“Cardioplegic solution” (Jolife AB, priority 2000, dated 2007)", "key": {"[1]": {"tested_on": "pigs with electrically induced ventricular fibrillation", "test": "Internal cardiopulmonary resuscitation by continuous left ventricle infusion of potassium chloride, followed by V-A ECMO", "type": "in vivo", "quoted_text": "The purpose of the experiment was to evaluate the effects of continuous potassium chloride infusion during internal CPR with a catheter inserted into the left ventricle and to investigate the need for ECMO (extracorporeal membrane oxygenation) after high dose potassium chloride treatment during CPR, to obtain return of ROSC after prolonged CPR.\nThe haemodynamic parameters continuously was measured and stored as mean values every 5 second. Blood gases was analyzed with a Radiometer™ ABL 555® blood gas machine. Drug administration (Addex® potassium 4 mmol/ml, Fresenius Kabi, Uppsala, Sweden. 40 mg/ml papaverin, NM Pharma, Stockholm, Sweden.) during CPR was given according a specific protocol.\nThe following data parameters were measured and stored as mean values every 5 seconds throughout the experiment:\nECG, arterial pressure (SAP/MAP/DAP), central venous pressure (CVP), coronary perfusion pressure (CPP), carotid flow (CF), temperature, urine production (every 15 min), and blood gases.\nThe blood gas (Radiometer™, ABL 555®) data parameter were measured and stored intermittently or written down by hand throughout the experiment.\nElectrically ventricular fibrillation was induced electrically in healthy test pigs (25-80 kg in body weight) at normothermic conditions (a body temperature of 38° C.). After 90 seconds of untreated ventricular fibrillation internal heart massage started manually and continued for 60 min. At the same time a booster injection of 10 ml potassium (Addex® potassium 4 mmol/ml, Fresenius Kabi, Uppsala, Sweden) and 3 ml papaverin sulfate (Papaverin 40 mg/ml, NM Pharma, Stockholm, Sweden) was given. Directly after a potassium infusion (Addex® potassium 4 mmol/ml, Fresenius Kabi, Uppsala, Sweden) was started (100 ml/h for 20 min, 50 ml/h for 20 min, 20 ml/h for 20 min). […] After 60 minutes of resuscitation V-A (venoarterial) ECMO was established and by ultrafiltration the serum potassium ion concentration was reduced towards normal levels.\nAfter the 6-hour test period, the animal was put to death with a euthanasia solution."}, "[2]": {"tested_on": "pigs with ventricular fibrillation", "test": "Potassium chloride cardioplegia during heart compressions in pigs with induced ventricular fibrillation", "type": "in vivo, pig", "conditions": "for development of stone heart: pigs, induced ventricular fibrillation, continuous infusion of potassium chloride, heart compressions for 1 hour", "protocol": "Due to the access to the new external chest compression machine, “Lucas”, we have run extensive experiments in pigs. Until now we have run experiments in 5 years and used over 800 pigs. This new machine is much more efficient than manual compression of the chest. About 30% of the pigs with ventricular fibrillation survived 1 hour of external heart massage with the machine in normothermia. With manual compression no pigs survived 15 minutes. […] We noticed that this started to happen after 15 minutes.\nThe idea then came up that if cardioplegia is induced to the heart during heart arrest, it would be possible to eliminate this stone heart condition and make 100% of the hearts survive 60 minutes of heart compression. In clinical heart surgery we routinely use potassium to accomplish depolarisation and cardioplegia. We induced ventricular fibrillation in pigs and then induced cardioplegia in the form of potassium chloride into a central venous needle or even directly into the left ventricle, thereby inducing cardioplegia. By a continuous infusion of potassium chloride we kept the heart in a cardioplegic condition. […] After 60 minutes we cannulated the pig in the femoral artery and vein and established an extracorporeal membrane oxygenation (ECMO). […] When cardioplegia is induced in a heart at normotermia, 90% of the need for oxygen is eliminated, and the heart is arrested in a relaxed condition. Such a heart is very easy to perform external or internal heart massage on."}}}
{"smiles": "[Cl-].[K+]", "note": "[potassium chloride]", "values": [{"measurement": "Event: heart beating", "setting": "[1]; 25 kg Swedish domestic pig, Exp. Time 2:22:01, after stop K at 2:18:38, on bypass", "result": "spontaneously"}, {"measurement": "Event: urine production", "setting": "[1]; 25 kg Swedish domestic pig, Exp. Time 4:29:33, after off bypass at 3:42:43", "result": "normal urine"}, {"measurement": "heart rhythm / ROSC", "setting": "[1]; after 1 h of CPR in combination with potassium administration followed by ECMO, FIG. 1", "result": "ROSC came into effect"}, {"measurement": "return of spontaneous heart beat after potassium chloride washed away by filtration", "setting": "[2]; after 60 minutes of heart compressions, ECMO via femoral artery and vein", "result": "the heart started to beat spontaneously again"}, {"measurement": "recovery of hearts after heart massage", "setting": "[2]; experimental animal with acute ventricular fibrillation, after one hour of heart massage", "result": "possible to recover all hearts"}, {"measurement": "development of stone heart", "setting": "[2]", "result": "without the development of stone heart"}, {"measurement": "development of stone heart", "setting": "[2]; listed as potassium", "result": "eliminates the development of stone heart"}]}
